In patent US20250263395A1, “COMPOUNDS THAT MEDIATE PROTEIN DEGRADATION AND METHODS OF USE THEREOF” (Monte Rosa Therapeutics AG, priority 2022, published 2025):

Legend:
[1] = target: CDK2 (Homo sapiens (Human), UniProt P24941); assay: CDK2 NanoBiT assay (HiBiT-tagged CDK2 degradation); assay type: cell-based; settings: C-terminal HiBiT tag on CDK2, LgBiT, 24 hours
Procedure, shortened: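 HEK293 line with CRISPR knock-in C-terminal HiBiT-tagged CDK2 and stable LgBiT, preincubated 16 h with live-cell substrate, then compound-treated 24 h at 37° C, 5% CO2 (30 μM stock). Luminescence normalized to plate negative and positive controls; EC50 from 3-parameter logistic fit, Hill slope 1.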

[2] = target: CRBN-DDB1 (Homo sapiens (Human), UniProt Q96SW2); assay: CRBN HTRF assay (Cy5-Thalidomide probe displacement); assay type: binding; settings: CRBN-DDB1 2.5 nM, Cy5-Thalidomide 100 nM, 30 min; Ki from geometric mean IC50 by Cheng-Prusoff
Procedure, shortened: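 HTRF displacement of Cy5-thalidomide probe (100 nM) from His-CRBN-DDB1 (2.5 nM) with anti-His terbium cryptate, in HEPES/NaCl/TCEP/EDTA/Tween20 buffer. 10-point 1:3 compound series, 30 min at ambient temperature; signal normalised to DMSO and lenalidomide controls, IC50 fitted and Ki derived by Cheng-Prusoff.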

CRBN-DDB1, sequence (Q96SW2 whole entry): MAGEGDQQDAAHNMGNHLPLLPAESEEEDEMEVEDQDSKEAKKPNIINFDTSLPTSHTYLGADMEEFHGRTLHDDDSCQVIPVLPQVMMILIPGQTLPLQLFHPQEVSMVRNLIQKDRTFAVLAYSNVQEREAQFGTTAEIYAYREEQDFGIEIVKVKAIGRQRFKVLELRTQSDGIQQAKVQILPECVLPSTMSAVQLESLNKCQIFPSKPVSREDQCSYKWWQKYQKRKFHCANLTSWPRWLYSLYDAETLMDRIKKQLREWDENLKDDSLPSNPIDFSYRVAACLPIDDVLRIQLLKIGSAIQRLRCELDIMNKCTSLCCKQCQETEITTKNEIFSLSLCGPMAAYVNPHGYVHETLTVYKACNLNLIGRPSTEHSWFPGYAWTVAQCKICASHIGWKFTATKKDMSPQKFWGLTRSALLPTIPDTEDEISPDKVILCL
CRBN-DDB1, sequence (Q16531 whole entry partner): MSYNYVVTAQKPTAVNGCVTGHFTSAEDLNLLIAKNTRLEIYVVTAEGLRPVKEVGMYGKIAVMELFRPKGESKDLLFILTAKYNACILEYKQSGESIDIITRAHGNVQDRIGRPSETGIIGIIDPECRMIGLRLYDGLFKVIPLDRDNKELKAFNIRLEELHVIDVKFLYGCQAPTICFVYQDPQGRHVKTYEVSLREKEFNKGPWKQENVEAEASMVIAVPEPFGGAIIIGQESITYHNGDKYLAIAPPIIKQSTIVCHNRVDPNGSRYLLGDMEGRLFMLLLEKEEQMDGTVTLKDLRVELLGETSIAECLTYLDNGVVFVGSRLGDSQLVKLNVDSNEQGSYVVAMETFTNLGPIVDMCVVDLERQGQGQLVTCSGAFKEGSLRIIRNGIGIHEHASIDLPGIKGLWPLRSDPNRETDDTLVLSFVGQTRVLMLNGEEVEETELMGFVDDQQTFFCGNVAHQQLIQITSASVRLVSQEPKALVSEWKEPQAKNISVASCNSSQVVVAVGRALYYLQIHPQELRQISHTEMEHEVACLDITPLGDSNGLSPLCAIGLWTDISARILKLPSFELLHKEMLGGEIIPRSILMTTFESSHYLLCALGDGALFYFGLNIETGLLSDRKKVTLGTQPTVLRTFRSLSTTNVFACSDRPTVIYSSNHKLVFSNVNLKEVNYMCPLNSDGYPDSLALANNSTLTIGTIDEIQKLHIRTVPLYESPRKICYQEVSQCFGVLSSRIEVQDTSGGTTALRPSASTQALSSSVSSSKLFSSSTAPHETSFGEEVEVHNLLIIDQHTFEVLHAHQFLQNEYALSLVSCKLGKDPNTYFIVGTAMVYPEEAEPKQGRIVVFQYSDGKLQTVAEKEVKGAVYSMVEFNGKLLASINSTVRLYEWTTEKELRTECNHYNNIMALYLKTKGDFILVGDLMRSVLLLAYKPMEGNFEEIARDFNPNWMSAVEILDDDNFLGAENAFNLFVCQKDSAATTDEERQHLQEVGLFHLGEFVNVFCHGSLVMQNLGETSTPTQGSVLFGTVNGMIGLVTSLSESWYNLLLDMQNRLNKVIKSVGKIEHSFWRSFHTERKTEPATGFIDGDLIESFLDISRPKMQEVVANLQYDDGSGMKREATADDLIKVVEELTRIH

| Dmax ([1]; HEK293, HEK293 clonal line) | Ki [2] | Structure (SMILES) | Dmax ([1]; HEK293 clonal line) |
| --- | --- | --- | --- |
| > 80% | ≤ 100 nM | O=C1CCC(c2c(Cl)cc(N3CC(Nc4nnc(C5CC6(CCC6)C5)o4)C3)cc2Cl)C(=O)N1 (centres unmarked) [Compound 102, 3-(2,6-dichloro-4-(3-((5-(spiro[3.3]heptan-2-yl)-1,3,4-oxadiazol-2-yl)amino)azetidin-1-yl)phenyl)piperidine-2,6-dione] |  |
| 50 to 80% | 100 to 1000 nM | Cc1ccc(-c2nnc(N[C@H]3CN(c4cc(F)c(C5CCC(=O)NC5=O)c(F)c4)[C@@H]3C)o2)cc1 (stereo partly drawn) [Compound 143, 3-(2,6-difluoro-4-((2R,3S)-2-methyl-3-((5-(p-tolyl)-1,3,4-oxadiazol-2-yl)amino)azetidin-1-yl)phenyl)piperidine-2,6-dione] |  |
| > 80% | 100 to 1000 nM | O=C1CCC(c2c(F)cc(N3CC[C@H](NC(=O)OCC4CC5(CCC5)C4)C3)cc2F)C(=O)N1 (stereo partly drawn) [Compound 61, spiro[3.3]heptan-2-ylmethyl ((3S)-1-(4-(2,6-dioxopiperidin-3-yl)-3,5-difluorophenyl)pyrrolidin-3-yl)carbamate] |  |
| 50 to 80% | 100 to 1000 nM | COc1c(N2CC(C)(NC(=O)OCC3CC4(CCC4)C3)C2)ccc(C2CCC(=O)NC2=O)c1F (centres unmarked) [Compound 2, spiro[3.3]heptan-2-ylmethyl (1-(4-(2,6-dioxopiperidin-3-yl)-3-fluoro-2-methoxyphenyl)-3-methylazetidin-3-yl)carbamate] |  |
| 10 to 50% | ≤ 100 nM | O=C1CCC(c2c(F)cc(N3CC(NC(=O)OC4CN(C(=O)C5CC5)C4)C3)cc2F)C(=O)N1 (centres unmarked) [Compound 41, 1-(cyclopropanecarbonyl)azetidin-3-yl (1-(4-(2,6-dioxopiperidin-3-yl)-3,5-difluorophenyl)azetidin-3-yl)carbamate] |  |
| 10 to 50% | ≤ 100 nM | O=C1CCC(c2c(F)cc(N3CC(Nc4nnc(-c5ccccn5)o4)C3)cc2F)C(=O)N1 (centres unmarked) [Compound 124, 3-(2,6-difluoro-4-(3-((5-(pyridin-2-yl)-1,3,4-oxadiazol-2-yl)amino)azetidin-1-yl)phenyl)piperidine-2,6-dione] |  |
| 50 to 80% | ≤ 100 nM | O=C1CCC(c2c(F)cc(N3CC(NC(=O)OC4CN(C(=O)N5CCC5)C4)C3)cc2F)C(=O)N1 (centres unmarked) [Compound 30, 1-(azetidine-1-carbonyl)azetidin-3-yl (1-(4-(2,6-dioxopiperidin-3-yl)-3,5-difluorophenyl)azetidin-3-yl)carbamate] |  |
| 50 to 80% | 100 to 1000 nM | O=C1CC[C@@H](c2c(F)cc(N3CC[C@@H](NC(=O)OCC4CC5(CCC5)C4)C3=O)cc2F)C(=O)N1 [Compound 55, spiro[3.3]heptan-2-ylmethyl ((R)-1-(4-((S)-2,6-dioxopiperidin-3-yl)-3,5-difluorophenyl)-2-oxopyrrolidin-3-yl)carbamate] |  |
| 50 to 80% | ≤ 100 nM | O=C1CCC(c2c(F)cc(N3CC(Nc4nnc(-c5cccnc5)o4)C3)cc2F)C(=O)N1 (centres unmarked) [Compound 128, 3-(2,6-difluoro-4-(3-((5-(pyridin-3-yl)-1,3,4-oxadiazol-2-yl)amino)azetidin-1-yl)phenyl)piperidine-2,6-dione] |  |
| > 80% | ≤ 100 nM | O=C1CCC(c2c(F)cc(N3CC(Nc4nnc(C5CC6(CCC6)C5)o4)C3)cc2F)C(=O)N1 (centres unmarked) [Compound 107, 3-(2,6-difluoro-4-(3-((5-(spiro[3.3]heptan-2-yl)-1,3,4-oxadiazol-2-yl)amino)azetidin-1-yl)phenyl)piperidine-2,6-dione] |  |
| 50 to 80% | ≤ 100 nM | CN(CC1CC1)C(=O)N1CC(OC(=O)NC2CN(c3cc(F)c(C4CCC(=O)NC4=O)c(F)c3)C2)C1 (centres unmarked) [Compound 43, 1-((cyclopropylmethyl)(methyl)carbamoyl)azetidin-3-yl (1-(4-(2,6-dioxopiperidin-3-yl)-3,5-difluorophenyl)azetidin-3-yl)carbamate] |  |

Further lines, the compound ahead of its results:

| Structure (SMILES) | Dmax ([1]; HEK293, HEK293 clonal line) | Ki [2] | Dmax ([1]; HEK293 clonal line) |
| --- | --- | --- | --- |
| COC12CC(c3nnc(N[C@H]4CN(c5cc(F)c(C6CCC(=O)NC6=O)c(F)c5)[C@@H]4C)o3)(C1)C2 (stereo partly drawn) [Compound 139, 3-(2,6-difluoro-4-((2R,3S)-3-((5-(3-methoxybicyclo[1.1.1]pentan-1-yl)-1,3,4-oxadiazol-2-yl)amino)-2-methylazetidin-1-yl)phenyl)piperidine-2,6-dione] | 50 to 80% | 100 to 1000 nM |  |
| CN(CC1CC1)C(=O)C12CC(OC(=O)NC3CN(c4cc(F)c(C5CCC(=O)NC5=O)c(F)c4)C3)(C1)C2 (centres unmarked) [Compound 82, 3-((cyclopropylmethyl)(methyl)carbamoyl)bicyclo[1.1.1]pentan-1-yl (1-(4-(2,6-dioxopiperidin-3-yl)-3,5-difluorophenyl)azetidin-3-yl)carbamate] | > 80% | ≤ 100 nM |  |
| CC1(CCc2nnc(NC3CN(c4cc(F)c(C5CCC(=O)NC5=O)c(F)c4)C3)o2)CC1 (centres unmarked) [Compound 122, 3-(2,6-difluoro-4-(3-((5-(2-(1-methylcyclopropyl)ethyl)-1,3,4-oxadiazol-2-yl)amino)azetidin-1-yl)phenyl)piperidine-2,6-dione] | 10 to 50% | ≤ 100 nM |  |
| O=C1CCC(c2c(F)cc(N3CC(Nc4cc(C5CC6(CCC6)C5)ccn4)C3)cc2F)C(=O)N1 (centres unmarked) [Compound 106, 3-(2,6-difluoro-4-(3-((4-(spiro[3.3]heptan-2-yl)pyridin-2-yl)amino)azetidin-1-yl)phenyl)piperidine-2,6-dione] | 50 to 80% | ≤ 100 nM |  |
| Cc1ccc(N(C)C(=O)N2CC(OC(=O)NC3CN(c4cc(F)c(C5CCC(=O)NC5=O)c(F)c4)C3)C2)nc1 (centres unmarked) [Compound 110, 1-(methyl (5-methylpyridin-2-yl)carbamoyl) azetidin-3-yl (1-(4-(2,6-dioxopiperidin-3-yl)-3,5-difluorophenyl)azetidin-3-yl) carbamate] | 10 to 50% | ≤ 100 nM |  |
| CN(C(=O)C12CC(OC(=O)NC3CN(c4cc(F)c(C5CCC(=O)NC5=O)c(F)c4)C3)(C1)C2)c1cccc(C#N)c1 (centres unmarked) [Compound 123, 3-((3-cyanophenyl)(methyl)carbamoyl)bicyclo[1.1.1]pentan-1-yl (1-(4-(2,6-dioxopiperidin-3-yl)-3,5-difluorophenyl)azetidin-3-yl)carbamate] | 10 to 50% | ≤ 100 nM |  |
| O=C1CCC(c2c(F)cc(N3CC(Nc4nnc(-c5ccccc5)o4)C3)cc2F)C(=O)N1 (centres unmarked) [Compound 104, 3-(2,6-difluoro-4-(3-((5-phenyl-1,3,4-oxadiazol-2-yl)amino)azetidin-1-yl)phenyl)piperidine-2,6-dione] | > 80% | ≤ 100 nM |  |
| C[C@@H]1[C@@H](Nc2nnc(-c3ccc(OC(F)(F)F)cc3)o2)CN1c1cc(F)c(C2CCC(=O)NC2=O)c(F)c1 (stereo partly drawn) [Compound 144, 3-(2,6-difluoro-4-((2R,3S)-2-methyl-3-((5-(4-(trifluoromethoxy)phenyl)-1,3,4-oxadiazol-2-yl)amino)azetidin-1-yl)phenyl)piperidine-2,6-dione] | 50 to 80% | ≤ 100 nM |  |
| CC1(CCCOC(=O)NC2CN(c3cc(F)c(C4CCC(=O)NC4=O)c(F)c3)C2)CC1 (centres unmarked) [Compound 66, 3-(1-methylcyclopropyl)propyl (1-(4-(2,6-dioxopiperidin-3-yl)-3,5-difluorophenyl)azetidin-3-yl)carbamate] | > 80% | ≤ 100 nM |  |
| CC(C)C1CC(COC(=O)NC2CN(c3cc(F)c(C4CCC(=O)NC4=O)c(F)c3)C2)C1 (centres unmarked) [Compound 68, (3-isopropylcyclobutyl)methyl (1-(4-(2,6-dioxopiperidin-3-yl)-3,5-difluorophenyl)azetidin-3-yl)carbamate] | > 80% | 100 to 1000 nM |  |
| Cc1cccnc1N1CC(OC(=O)NC2CN(c3cc(F)c(C4CCC(=O)NC4=O)c(F)c3)C2)C1 (centres unmarked) [Compound 29, 1-(3-methylpyridin-2-yl)azetidin-3-yl (1-(4-(2,6-dioxopiperidin-3-yl)-3,5-difluorophenyl)azetidin-3-yl)carbamate] | 50 to 80% | ≤ 100 nM |  |
| CC(C)(C)[Si](C)(C)O[C@H]1C[C@H](OC(=O)NC2CN(c3cc(F)c(C4CCC(=O)NC4=O)c(F)c3)C2)C1 (some centres unmarked) [Compound 47, (1r, 3r)-3-((tert-butyldimethylsilyl)oxy)cyclobutyl (1-(4-(2,6-dioxopiperidin-3-yl)-3,5-difluorophenyl)azetidin-3-yl)carbamate] |  | ≤ 100 nM | > 80% |
| O=C1CCC(c2ccc(N3CC(NC(=O)OCC4CC5(CCC5)C4)C3)cc2F)C(=O)N1 (centres unmarked) [Compound 59, spiro[3.3]heptan-2-ylmethyl (1-(4-(2,6-dioxopiperidin-3-yl)-3-fluorophenyl)azetidin-3-yl)carbamate] | > 80% | ≤ 100 nM |  |
| O=C1CCC(c2ccc(N3CC(NC(=O)OCC4CC5(CCC5)C4)C3)cc2Cl)C(=O)N1 (centres unmarked) [Compound 60, spiro[3.3]heptan-2-ylmethyl (1-(3-chloro-4-(2,6-dioxopiperidin-3-yl)phenyl)azetidin-3-yl)carbamate] | > 80% | ≤ 100 nM |  |
